In US20240025919A1, “AZA-TETRACYCLIC OXAZEPINE COMPOUNDS AND USES THEREOF” (Genentech, Inc., priority 2022, published 2024):

How the values were obtained:
[1] = target: KRAS WT (Homo sapiens (Human), UniProt P01116); experiment: KRAS WT Biochemical Assay, BODIPY-GDP Exchange TR-FRET (Example 502; 0.06 nM KRAS WT, 15 nM GDP, 300 nM SOS1, 120-minute incubation); settings: read-out: KRas HTRF IC50
Method in brief: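 IC50 from a 4-parameter Hill fit of percent inhibition, itself the TR-FRET 520/490 nm ratio scaled between DMSO and a fully inhibiting control. Reaction: 300 nM SOS1 and 300 nM BODIPY-GDP added to preformed 0.06 nM KRAS WT/15 nM GDP/Tb-streptavidin complex; 120 min incubation; pH 7.5 HEPES, MgCl2, DTT.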

[2] = target: KRAS G12D (Homo sapiens (Human), UniProt P01116, G12D); experiment: KRAS G12D LoEnz Biochemical Assay, BODIPY-GDP Exchange TR-FRET (SOS1-mediated nucleotide exchange); settings: read-out: KRas (G12D) GDP HTRF IC50
Sequence of KRAS G12D (P01116-2 other isoform, or with tags, fused parts or gaps G12D): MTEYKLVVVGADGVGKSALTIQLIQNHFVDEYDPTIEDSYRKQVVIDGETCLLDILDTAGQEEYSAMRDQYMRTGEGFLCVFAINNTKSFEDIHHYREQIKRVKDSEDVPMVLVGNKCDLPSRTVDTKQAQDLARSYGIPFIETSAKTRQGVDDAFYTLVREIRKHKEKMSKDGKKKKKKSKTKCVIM

Sequence of KRAS WT (P01116-2 other isoform, or with tags, fused parts or gaps): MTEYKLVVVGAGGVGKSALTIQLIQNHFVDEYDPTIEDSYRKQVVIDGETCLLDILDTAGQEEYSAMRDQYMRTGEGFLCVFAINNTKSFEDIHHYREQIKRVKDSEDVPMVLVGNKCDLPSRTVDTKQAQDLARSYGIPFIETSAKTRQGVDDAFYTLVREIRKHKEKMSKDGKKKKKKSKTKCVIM

Cc1c(F)c(N)cc(-c2nc3c4c(nc(OCCCN5CCOCC5)nc4c2F)N2C[C@H]4CC[C@H](N4)[C@H]2[C@H](C)O3)c1C(F)(F)F [Compound 138, 2-Fluoro-5-((5S,5aS,6S,9R)-1-fluoro-5-methyl-12-(3-morpholinopropoxy)-5a,6,7,8,9,10-hexahydro-5H-4-oxa-3,10a,11,13,14-pentaaza-6,9-methanonaphtho[1,8-ab]heptalen-2-yl)-3-methyl-4-(trifluoromethyl)aniline]
IC50 [1]: 115 nM
IC50 [2]: 0.42 nM

Cc1c(F)c(N)cc(-c2nc3c4c(nc(OCC56C[C@H](F)CN5C[C@@H](F)C6)nc4c2F)N2C[C@H]4CC[C@H](N4)[C@H]2[C@H](C)O3)c1C(F)(F)F [Compound 139, 5-((5S,5aS,6S,9R)-12-(((2S,6S)-2,6-Difluorotetrahydro-1H-pyrrolizin-7a(5H)-yl)methoxy)-1-fluoro-5-methyl-5a,6,7,8,9,10-hexahydro-5H-4-oxa-3,10a,11,13,14-pentaaza-6,9-methanonaphtho[1,8-ab]heptalen-2-yl)-2-fluoro-3-methyl-4-(trifluoromethyl)aniline]
IC50 [1]: 780 nM
IC50 [2]: 2.41 nM

Cc1c(F)c(N)cc(-c2nc3c4c(nc(OCC56C[C@@H](F)CN5C[C@H](F)C6)nc4c2F)N2C[C@H]4CC[C@H](N4)[C@H]2[C@H](C)O3)c1C(F)(F)F [Compound 140, 5-((5S,5aS,6S,9R)-12-(((2R,6R)-2,6-Difluorotetrahydro-1H-pyrrolizin-7a(5H)-yl)methoxy)-1-fluoro-5-methyl-5a,6,7,8,9,10-hexahydro-5H-4-oxa-3,10a,11,13,14-pentaaza-6,9-methanonaphtho[1,8-ab]heptalen-2-yl)-2-fluoro-3-methyl-4-(trifluoromethyl)aniline]
IC50 [1]: 18.4 nM
IC50 [2]: 0.14 nM

Cc1c(F)c(N)cc(-c2nc3c4c(nc(OC[C@]56C[C@H](F)CN5C[C@H](F)C6)nc4c2F)N2C[C@H]4CC[C@H](N4)[C@H]2[C@H](C)O3)c1C(F)(F)F [Compound 141, 5-((5S,5aS,6S,9R)-12-(((2R,6S,7ar)-2,6-Difluorotetrahydro-1H-pyrrolizin-7a(5H)-yl)methoxy)-1-fluoro-5-methyl-5a,6,7,8,9,10-hexahydro-5H-4-oxa-3,10a,11,13,14-pentaaza-6,9-methanonaphtho[1,8-ab]heptalen-2-yl)-2-fluoro-3-methyl-4-(trifluoromethyl)aniline]
IC50 [1]: 85 nM
IC50 [2]: 0.26 nM

Cc1c(F)c(N)cc(-c2nc3c4c(nc(OC[C@@]56C[C@H](F)CN5C[C@H](F)C6)nc4c2F)N2C[C@H]4CC[C@H](N4)[C@H]2[C@H](C)O3)c1C(F)(F)F [Compound 142, 5-((5S,5aS,6S,9R)-12-(((2R,6S,7as)-2,6-Difluorotetrahydro-1H-pyrrolizin-7a(5H)-yl)methoxy)-1-fluoro-5-methyl-5a,6,7,8,9,10-hexahydro-5H-4-oxa-3,10a,11,13,14-pentaaza-6,9-methanonaphtho[1,8-ab]heptalen-2-yl)-2-fluoro-3-methyl-4-(trifluoromethyl)aniline]
IC50 [1]: 33.2 nM
IC50 [2]: 0.2 nM

Cc1c(F)c(N)cc(-c2nc3c4c(nc(OC[C@H](F)CN5CC6(COC6)C5)nc4c2F)N2C[C@H]4CC[C@H](N4)[C@H]2[C@H](C)O3)c1C(F)(F)F [Compound 144]
IC50 [1]: 99.5 nM
IC50 [2]: 0.5 nM

Cc1c(F)c(N)cc(-c2nc3c4c(nc(OC[C@@H](F)CN5CC6(COC6)C5)nc4c2F)N2C[C@H]4CC[C@H](N4)[C@H]2[C@H](C)O3)c1C(F)(F)F [Compound 145]
IC50 [1]: 171 nM
IC50 [2]: 0.67 nM

Cc1c(F)c(N)cc(-c2nc3c4c(nc(OC[C@@H](F)CN5CC(CO)(CO)C5)nc4c2F)N2C[C@H]4CC[C@H](N4)[C@H]2[C@H](C)O3)c1C(F)(F)F [Compound 146]
IC50 [1]: 114 nM
IC50 [2]: 0.76 nM

Cc1c(F)c(N)cc(-c2nc3c4c(nc(OCCC5(N6CCOCC6)COC5)nc4c2F)N2C[C@H]4CC[C@H](N4)[C@H]2[C@H](C)O3)c1C(F)(F)F [Compound 149, 2-Fluoro-5-((5S,5aS,6S,9R)-1-fluoro-5-methyl-12-(2-(3-morpholinooxetan-3-yl)ethoxy)-5a,6,7,8,9,10-hexahydro-5H-4-oxa-3,10a,11,13,14-pentaaza-6,9-methanonaphtho[1,8-ab]heptalen-2-yl)-3-methyl-4-(trifluoromethyl)aniline]
IC50 [1]: 5450 nM
IC50 [2]: 18.4 nM

Cc1c(F)c(N)cc(-c2nc3c4c(nc(OCC[C@@H]5CC[C@H]6COCCN56)nc4c2F)N2C[C@H]4CC[C@H](N4)[C@H]2[C@H](C)O3)c1C(F)(F)F [Compound 154, 2-Fluoro-5-((5S,5aS,6S,9R)-1-fluoro-12-(2-((6S,8aS)-hexahydro-1H-pyrrolo[2,1-c][1,4]oxazin-6-yl)ethoxy)-5-methyl-5a,6,7,8,9,10-hexahydro-5H-4-oxa-3,10a,11,13,14-pentaaza-6,9-methanonaphtho[1,8-ab]heptalen-2-yl)-3-methyl-4-(trifluoromethyl)aniline]
IC50 [1]: 118 nM
IC50 [2]: 0.47 nM

C[C@@H]1Oc2nc(-c3cc(N)c(F)c(F)c3C(F)(F)F)c(F)c3nc(OCC45CCN4CC(F)(F)C5)nc(c23)N2C[C@H]3CC[C@H](N3)[C@@H]12 (stereo partly drawn) [Compound 155, 5-((5S,5aS,6S,9R)-12-((3,3-difluoro-1-azabicyclo[3.2.0]heptan-5-yl)methoxy)-1-fluoro-5-methyl-5a,6,7,8,9,10-hexahydro-5H-4-oxa-3,10a,11,13,14-pentaaza-6,9-methanonaphtho[1,8-ab]heptalen-2-yl)-2,3-difluoro-4-(trifluoromethyl)aniline]
IC50 [1]: 31.5 nM
IC50 [2]: 0.22 nM

C[C@@H]1Oc2nc(-c3cc(N)cc(F)c3C(F)(F)F)c(F)c3nc(OCC4CCC5N4CCOC5(C)C)nc(c23)N2C[C@H]3CC[C@H](N3)[C@@H]12 (stereo partly drawn) [Compound 157, 3-((5S,5aS,6S,9R)-12-((1,1-Dimethylhexahydro-1H-pyrrolo[2,1-c][1,4]oxazin-6-yl)methoxy)-1-fluoro-5-methyl-5a,6,7,8,9,10-hexahydro-5H-4-oxa-3,10a,11,13,14-pentaaza-6,9-methanonaphtho[1,8-ab]heptalen-2-yl)-5-fluoro-4-(trifluoromethyl)aniline]
IC50 [1]: 45.6 nM
IC50 [2]: 0.55 nM

Cc1c(F)c(N)cc(-c2nc3c4c(nc(OC[C@H]5[C@H](C#N)CCN5C)nc4c2F)N2C[C@H]4CC[C@H](N4)[C@H]2[C@H](C)O3)c1C(F)(F)F [Compound 161, (2R,3R)-2-((((5S,5aS,6S,9R)-2-(5-Amino-4° fluoro-3-methyl-2-(trifluoromethylo)henyl)-1-fluoro-5-methyl-5a,6,7,8,9,10-hexahydro-5H-4-oxa-3,10a,11,13,14-pentaaza-6,9-methanonaphtho[1,8-ab]heptalen-12-yl)oxy)methyl)-1-methylpyrrolidine-3-carbonitrile]
IC50 [1]: 1330 nM
IC50 [2]: 7.61 nM

Cc1c(F)c(N)cc(-c2nc3c4c(nc(OC[C@H]5[C@@H](O)CCN5C)nc4c2F)N2C[C@H]4CC[C@H](N4)[C@H]2[C@H](C)O3)c1C(F)(F)F [Compound 162, (2S,3S)-2-((((5S,5aS,6S,9R)-2-(5-Amino-4-fluoro-3-methyl-2-(trifluoromethyl)phenyl)-1-fluoro-5-methyl-5a,6,7,8,9,10-hexahydro-5H-4-oxa-3,10a,11,13,14-pentaaza-6,9-methanonaphtho[1,8-ab]heptalen-12-yl)oxy)methyl)-1-methylpyrrolidin-3-ol]
IC50 [1]: 41.3 nM
IC50 [2]: 0.13 nM

Cc1c(F)c(N)cc(-c2nc3c4c(nc(OCCCN5C[C@H]6C[C@@H]5CO6)nc4c2F)N2C[C@H]4CC[C@H](N4)[C@H]2[C@H](C)O3)c1C(F)(F)F [Compound 163, 5-((5S,5aS,6S,9R)-12-(3-((1R,4R)-2-Oxa-5-azabicyclo[2.2.1]heptan-5-yl)propoxy)-1-fluoro-5-methyl-5a,6,7,8,9,10-hexahydro-5H-4-oxa-3,10a,11,13,14-pentaaza-6,9-methanonaphtho[1,8-ab]heptalen-2-yl)-2-fluoro-3-methyl-4-(trifluoromethyl)aniline]
IC50 [1]: 19.6 nM
IC50 [2]: 0.11 nM

Cc1c(F)c(N)cc(-c2nc3c4c(nc(OCCCN5C[C@@H]6C[C@H]5CO6)nc4c2F)N2C[C@H]4CC[C@H](N4)[C@H]2[C@H](C)O3)c1C(F)(F)F [Compound 164, 5-((5S,5aS,6S,9R)-12-(3-((1S,4S)-2-oxa-5-azabicyclo[2.2.1]heptan-5-yl)propoxy)-1-fluoro-5-methyl-5a,6,7,8,9,10-hexahydro-5H-4-oxa-3,10a,11,13,14-pentaaza-6,9-methanonaphtho[1,8-ab]heptalen-2-yl)-2-fluoro-3-methyl-4-(trifluoromethyl)aniline]
IC50 [1]: 30.6 nM
IC50 [2]: 0.15 nM

Cc1c(F)c(N)cc(-c2nc3c4c(nc(OCC5(CN6CCO[C@H](C)C6)CC5)nc4c2F)N2C[C@H]4CC[C@H](N4)[C@H]2[C@H](C)O3)c1C(F)(F)F [Compound 168, 2-Fluoro-5-((5S,5aS,6S,9R)-1-fluoro-5-methyl-12-((1-(((R)-2-methylmorpholino)methyl)cyclopropyl)methoxy)-5a,6,7,8,9,10-hexahydro-5H-4-oxa-3,10a,11,13,14-pentaaza-6,9-methanonaphtho[1,8-ab]heptalen-2-yl)-3-methyl-4-(trifluoromethyl)aniline]
IC50 [1]: 1.68 nM
IC50 [2]: 0.12 nM

Cc1c(F)c(N)cc(-c2nc3c4c(nc(OCC5(CN6C[C@@H]7C[C@H]6CO7)CC5)nc4c2F)N2C[C@H]4CC[C@H](N4)[C@H]2[C@H](C)O3)c1C(F)(F)F [Compound 169, 5-((5S,5aS,6S,9R)-12-((1-(((1S,4S)-2-Oxa-5-azabicyclo[2.2.1]heptan-5-yl)methyl)cyclopropyl)methoxy)-1-fluoro-5-methyl-5a,6,7,8,9,10-hexahydro-5H-4-oxa-3,10a,11,13,14-pentaaza-6,9-methanonaphtho[1,8-ab]heptalene-2-yl)-2-fluoro-3-methyl-4-(trifluoromethyl)aniline]
IC50 [1]: 2.31 nM
IC50 [2]: 0.1 nM
